Laboratory results: PubChem BioAssay (NCI)
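Briefly, cells in 96-well plates were exposed to five compound concentrations for 48 h, and endpoints were estimated by linear interpolation. GI50 = concentration required for 50% inhibition of growth. Definition used: TGI = concentration required for complete inhibition of growth.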

Assays:
Experiment in all cases: NCI anticancer screen, dose series, 48 h
HS 578T breast = test system: HS 578T breast
A549 NSCLC = test system: A549 NSCLC
UACC-62 melanoma = test system: UACC-62 melanoma
OVCAR-5 ovarian = test system: OVCAR-5 ovarian
HT29 colon = test system: HT29 colon
MDA-MB-435 = test system: MDA-MB-435
RXF 393 renal = test system: RXF 393 renal
SN12C renal = test system: SN12C renal
CCRF-CEM leukemia = test system: CCRF-CEM leukemia
MOLT-4 leukemia = test system: MOLT-4 leukemia
PC-3 prostate = test system: PC-3 prostate

SMILES	TGI (HS 578T breast)	TGI (A549 NSCLC)	TGI (UACC-62 melanoma)	TGI (OVCAR-5 ovarian)	TGI (HT29 colon)	TGI (MDA-MB-435)	TGI (RXF 393 renal)	TGI (SN12C renal)	TGI (CCRF-CEM leukemia)	TGI (MOLT-4 leukemia)	TGI (PC-3 prostate)	GI50 (UACC-62 melanoma)	GI50 (CCRF-CEM leukemia)	GI50 (OVCAR-5 ovarian)	GI50 (HT29 colon)	GI50 (MDA-MB-435)	GI50 (SN12C renal)	GI50 (MOLT-4 leukemia)	GI50 (PC-3 prostate)
Oc1cn(-c2ccc(Cl)cc2)nc1-c1nnc(Nc2ccccc2)o1	51.2 µM	43.3 µM	30.6 µM	> 100 µM	22 µM	34.3 µM	39.6 µM	32.2 µM	–	–	–	–	–	–	–	–	–	–	–
COc1ccc(/C=C2/C(=O)N(C(=O)c3ccc(Cl)cc3)N=C2C)cc1OC	–	> 100 µM	> 100 µM	> 100 µM	> 100 µM	–	–	> 100 µM	> 100 µM	–	–	–	–	–	–	–	–	–	–
CCCCOC(=O)/C(CC(=O)C=C(C)C)=N\NS(=O)(=O)c1ccc(C)cc1	–	> 100 µM	> 100 µM	> 100 µM	> 100 µM	–	> 100 µM	> 100 µM	> 100 µM	> 100 µM	–	–	–	–	–	–	–	–	–
CCn1c(=O)c2c(=O)[nH][nH]c2c2ccccc21	> 100 µM	> 100 µM	–	> 100 µM	> 100 µM	> 100 µM	–	> 100 µM	> 100 µM	> 100 µM	> 100 µM	–	–	–	–	–	–	–	–
COc1ccc2c(OC)c3ccoc3nc2c1O	–	> 100 µM	> 100 µM	> 100 µM	> 100 µM	–	–	> 100 µM	> 100 µM	> 100 µM	–	–	–	–	–	–	–	–	–
Clc1cc(Cl)cc(N2N=C(c3cccc(Nc4ccncc4)c3)CC2c2ccccc2)c1 (stereo not drawn)	–	–	3.24 µM	8.74 µM	3.73 µM	3.36 µM	–	3.12 µM	> 100 µM	5.95 µM	5.15 µM	1.74 µM	2.92 µM	2.56 µM	1.8 µM	1.72 µM	1.66 µM	2.29 µM	1.87 µM
NN/C(=N\S(=O)(=O)c1cc(Cl)c(Oc2ccc([N+](=O)[O-])cc2Cl)c(Cl)c1)Nc1ccc(Cl)cc1	–	41.8 µM	28.8 µM	55 µM	39.1 µM	–	28.4 µM	33.2 µM	37.5 µM	85.8 µM	81.6 µM	–	–	–	–	–	–	–	–
CC(SC1=CC(=O)c2c(Cl)ccc(O)c2C1=O)C(=O)O (stereo not drawn)	–	48.1 µM	–	–	–	–	–	30.9 µM	> 100 µM	57.7 µM	–	–	–	–	–	–	–	–	–
COC(=O)c1c/c(=N\NC(=O)CC(=O)Nc2ccccc2Cl)c2ccccc2o1	–	> 100 µM	> 100 µM	> 100 µM	> 100 µM	–	–	> 100 µM	–	> 100 µM	–	–	–	–	–	–	–	–	–
CCc1cc(Cc2cc(CC)c(NC(=O)C3=CC(=O)CC(c4ccc(OC)cc4)O3)c(CC)c2Cl)c(Cl)c(CC)c1NC(=O)C1=CC(=O)CC(c2ccc(OC)cc2)O1 (stereo not drawn)	–	43.8 µM	63.2 µM	37.3 µM	36.4 µM	–	34.7 µM	39.5 µM	90.2 µM	> 100 µM	–	–	–	–	–	–	–	–	–
O=C(Cc1ccccc1)N/N=C(/CCN1CCCC1)CC(c1ccccc1)c1c(O)c2ccccc2oc1=O (stereo not drawn)	> 100 µM	> 100 µM	> 100 µM	> 100 µM	> 100 µM	> 100 µM	–	–	> 100 µM	> 100 µM	> 100 µM	–	–	–	–	–	–	–	–
O=S(=O)(CC1=NC2C=CC=CC2N=C1)NCc1ccccc1 (stereo not drawn)	–	> 100 µM	> 100 µM	> 100 µM	> 100 µM	–	> 100 µM	> 100 µM	> 100 µM	> 100 µM	–	–	–	–	–	–	–	–	–
O=C(Nc1ccccc1)N1CCNC1=S	> 100 µM	> 100 µM	> 100 µM	> 100 µM	> 100 µM	> 100 µM	98.2 µM	> 100 µM	> 100 µM	> 100 µM	–	–	–	–	–	–	–	–	–
COc1ccc2c(c1)c(Cc1c(C)n(C)c3ccc(OC)cc13)c(C)n2C	–	> 100 µM	> 100 µM	> 100 µM	> 100 µM	–	> 100 µM	> 100 µM	> 100 µM	> 100 µM	–	–	–	–	–	–	–	–	–
CC(=O)OC1[C@H]2c3cc4c(cc3CN3CCC(C[C@@H]1OC(C)=O)C23)OCO4 (stereo partly drawn)	–	> 75 µM	> 75 µM	–	> 75 µM	–	> 75 µM	> 75 µM	> 75 µM	> 75 µM	–	–	–	–	–	–	–	–	–
O=C(CCN(CCO)CCO)Nc1ccc2c(c1)C(=O)c1ccc(NC(=O)CCN(CCO)CCO)cc1C2=O	–	> 100 µM	27.8 µM	> 100 µM	> 100 µM	–	79.4 µM	> 100 µM	39.5 µM	44.9 µM	–	–	–	–	–	–	–	–	–
CCCOC(=O)c1cc(C(=CCC[C@H]2CC[C@@]3(C)[C@@H](CC[C@@H]4[C@@H]3CC[C@]3(C)[C@@H](C(C)CCCC(C)C)CC[C@@H]43)C2)c2cc(Cl)c(O)c(C(=O)OCCC)c2)cc(Cl)c1O (stereo partly drawn)	> 50 µM	–	> 50 µM	–	> 50 µM	> 50 µM	–	> 50 µM	> 50 µM	> 50 µM	> 50 µM	–	–	–	–	–	–	–	–
N[C@@H]1C[C@H](N)c2c(Cl)sc(Cl)c21	–	> 100 µM	> 100 µM	> 100 µM	–	> 100 µM	> 100 µM	> 100 µM	> 100 µM	> 100 µM	> 100 µM	–	–	–	–	–	–	–	–
